Patent US6608086B2, “Dihydropyridines and new uses thereof” (Synaptic Pharmaceutical Corporation, priority 1993, dated 2003)
Structures can show the parent of a compound that is named as a salt. Where two headings read alike, the source gives them in different places. Values belong to the compound of their own block, whether it stands above or below them.

Legend:
α2C receptor = molecular target: T1, α2C receptor (Homo sapiens, UniProt P18825); assay: Competition binding, [3H]rauwolscine, human α2C receptor; conditions: [3H]rauwolscine
T1 construct: host or cells: LM(tk-) cells, line L-α2C
T1 sequence (P18825 1-462): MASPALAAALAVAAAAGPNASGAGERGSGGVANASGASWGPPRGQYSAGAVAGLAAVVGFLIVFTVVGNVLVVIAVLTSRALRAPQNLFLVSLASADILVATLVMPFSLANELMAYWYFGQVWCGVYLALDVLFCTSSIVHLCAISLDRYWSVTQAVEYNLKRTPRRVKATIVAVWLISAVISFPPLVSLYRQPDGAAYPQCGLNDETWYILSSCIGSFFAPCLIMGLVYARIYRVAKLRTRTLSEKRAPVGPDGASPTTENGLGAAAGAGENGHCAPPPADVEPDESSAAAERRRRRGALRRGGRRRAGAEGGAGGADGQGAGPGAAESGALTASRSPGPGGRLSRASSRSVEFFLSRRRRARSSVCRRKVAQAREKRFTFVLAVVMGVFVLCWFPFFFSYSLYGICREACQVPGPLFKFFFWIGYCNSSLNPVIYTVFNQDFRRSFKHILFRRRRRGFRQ
How it was run: (§1)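 LM(tk−) lysates, stable α2A/α2B/α2C transfectants; 25 mM glycylglycine pH 7.6 (RT). [3H]rauwolscine 0.5 nM, equilibrium competition; NSB 10 μM phentolamine. GF/B filtration, cell harvester.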

[1] = molecular target: T2, α1C Human Adrenergic Receptor (Homo sapiens, UniProt P35348); assay: Radioligand binding, [3H]prazosin, cloned human α1C adrenergic receptor
T2 construct: The entire coding region of α1C (1401 bp); expressed in transfected cells
T2 sequence (P35348 1-466): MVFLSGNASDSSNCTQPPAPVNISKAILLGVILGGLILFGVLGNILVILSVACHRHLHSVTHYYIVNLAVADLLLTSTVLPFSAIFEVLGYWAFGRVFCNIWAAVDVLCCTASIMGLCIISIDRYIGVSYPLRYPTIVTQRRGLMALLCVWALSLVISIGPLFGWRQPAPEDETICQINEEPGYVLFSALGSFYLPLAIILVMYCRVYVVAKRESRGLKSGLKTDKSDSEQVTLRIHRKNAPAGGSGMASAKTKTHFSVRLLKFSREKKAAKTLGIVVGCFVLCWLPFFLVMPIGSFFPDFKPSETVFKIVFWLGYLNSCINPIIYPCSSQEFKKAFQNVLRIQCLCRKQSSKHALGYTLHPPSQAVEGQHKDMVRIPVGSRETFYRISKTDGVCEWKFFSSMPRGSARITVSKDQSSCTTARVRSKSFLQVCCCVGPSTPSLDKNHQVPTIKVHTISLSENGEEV
How it was run: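 Read-out is filter-retained [3H]prazosin (0.5 nM) bound to membranes of LM(tk−) cells stably carrying the human α1C receptor. Incubation ran 20 min at 37° C. at pH 7.5, with 10 μM phentolamine marking nonspecific binding.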

α2A receptor = molecular target: T3, α2A receptor (Homo sapiens, UniProt P08913); assay: Competition binding, [3H]rauwolscine, human α2A receptor; conditions: [3H]rauwolscine
T3 construct: host or cells: LM(tk-) cells, line L-α2A
T3 sequence (P08913 1-465): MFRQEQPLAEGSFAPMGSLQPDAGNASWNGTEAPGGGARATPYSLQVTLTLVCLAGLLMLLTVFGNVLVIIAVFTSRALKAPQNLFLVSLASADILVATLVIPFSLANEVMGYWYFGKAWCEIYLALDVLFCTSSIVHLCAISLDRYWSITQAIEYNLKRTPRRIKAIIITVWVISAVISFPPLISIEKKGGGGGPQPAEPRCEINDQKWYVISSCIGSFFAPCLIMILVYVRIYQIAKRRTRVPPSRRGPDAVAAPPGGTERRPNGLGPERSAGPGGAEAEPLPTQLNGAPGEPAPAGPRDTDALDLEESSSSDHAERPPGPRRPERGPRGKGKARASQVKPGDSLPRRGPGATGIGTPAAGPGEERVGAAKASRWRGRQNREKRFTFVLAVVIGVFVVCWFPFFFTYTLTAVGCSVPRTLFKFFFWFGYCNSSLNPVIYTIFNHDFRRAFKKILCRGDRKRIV
How it was run: as §1

L-type calcium channel = molecular target: T4, L-type calcium channel (Rattus norvegicus, UniProt P22002); assay: Competition binding of [3H]nitrendipine to membrane fragments of rat cardiac muscle; conditions: [3H]nitrendipine
T4 construct: membrane fragments of rat cardiac muscle; from tissue; host or cells: rat cardiac muscle membranes
T4 sequence (P22002 whole entry, other chains not shown, the tested form may be a part): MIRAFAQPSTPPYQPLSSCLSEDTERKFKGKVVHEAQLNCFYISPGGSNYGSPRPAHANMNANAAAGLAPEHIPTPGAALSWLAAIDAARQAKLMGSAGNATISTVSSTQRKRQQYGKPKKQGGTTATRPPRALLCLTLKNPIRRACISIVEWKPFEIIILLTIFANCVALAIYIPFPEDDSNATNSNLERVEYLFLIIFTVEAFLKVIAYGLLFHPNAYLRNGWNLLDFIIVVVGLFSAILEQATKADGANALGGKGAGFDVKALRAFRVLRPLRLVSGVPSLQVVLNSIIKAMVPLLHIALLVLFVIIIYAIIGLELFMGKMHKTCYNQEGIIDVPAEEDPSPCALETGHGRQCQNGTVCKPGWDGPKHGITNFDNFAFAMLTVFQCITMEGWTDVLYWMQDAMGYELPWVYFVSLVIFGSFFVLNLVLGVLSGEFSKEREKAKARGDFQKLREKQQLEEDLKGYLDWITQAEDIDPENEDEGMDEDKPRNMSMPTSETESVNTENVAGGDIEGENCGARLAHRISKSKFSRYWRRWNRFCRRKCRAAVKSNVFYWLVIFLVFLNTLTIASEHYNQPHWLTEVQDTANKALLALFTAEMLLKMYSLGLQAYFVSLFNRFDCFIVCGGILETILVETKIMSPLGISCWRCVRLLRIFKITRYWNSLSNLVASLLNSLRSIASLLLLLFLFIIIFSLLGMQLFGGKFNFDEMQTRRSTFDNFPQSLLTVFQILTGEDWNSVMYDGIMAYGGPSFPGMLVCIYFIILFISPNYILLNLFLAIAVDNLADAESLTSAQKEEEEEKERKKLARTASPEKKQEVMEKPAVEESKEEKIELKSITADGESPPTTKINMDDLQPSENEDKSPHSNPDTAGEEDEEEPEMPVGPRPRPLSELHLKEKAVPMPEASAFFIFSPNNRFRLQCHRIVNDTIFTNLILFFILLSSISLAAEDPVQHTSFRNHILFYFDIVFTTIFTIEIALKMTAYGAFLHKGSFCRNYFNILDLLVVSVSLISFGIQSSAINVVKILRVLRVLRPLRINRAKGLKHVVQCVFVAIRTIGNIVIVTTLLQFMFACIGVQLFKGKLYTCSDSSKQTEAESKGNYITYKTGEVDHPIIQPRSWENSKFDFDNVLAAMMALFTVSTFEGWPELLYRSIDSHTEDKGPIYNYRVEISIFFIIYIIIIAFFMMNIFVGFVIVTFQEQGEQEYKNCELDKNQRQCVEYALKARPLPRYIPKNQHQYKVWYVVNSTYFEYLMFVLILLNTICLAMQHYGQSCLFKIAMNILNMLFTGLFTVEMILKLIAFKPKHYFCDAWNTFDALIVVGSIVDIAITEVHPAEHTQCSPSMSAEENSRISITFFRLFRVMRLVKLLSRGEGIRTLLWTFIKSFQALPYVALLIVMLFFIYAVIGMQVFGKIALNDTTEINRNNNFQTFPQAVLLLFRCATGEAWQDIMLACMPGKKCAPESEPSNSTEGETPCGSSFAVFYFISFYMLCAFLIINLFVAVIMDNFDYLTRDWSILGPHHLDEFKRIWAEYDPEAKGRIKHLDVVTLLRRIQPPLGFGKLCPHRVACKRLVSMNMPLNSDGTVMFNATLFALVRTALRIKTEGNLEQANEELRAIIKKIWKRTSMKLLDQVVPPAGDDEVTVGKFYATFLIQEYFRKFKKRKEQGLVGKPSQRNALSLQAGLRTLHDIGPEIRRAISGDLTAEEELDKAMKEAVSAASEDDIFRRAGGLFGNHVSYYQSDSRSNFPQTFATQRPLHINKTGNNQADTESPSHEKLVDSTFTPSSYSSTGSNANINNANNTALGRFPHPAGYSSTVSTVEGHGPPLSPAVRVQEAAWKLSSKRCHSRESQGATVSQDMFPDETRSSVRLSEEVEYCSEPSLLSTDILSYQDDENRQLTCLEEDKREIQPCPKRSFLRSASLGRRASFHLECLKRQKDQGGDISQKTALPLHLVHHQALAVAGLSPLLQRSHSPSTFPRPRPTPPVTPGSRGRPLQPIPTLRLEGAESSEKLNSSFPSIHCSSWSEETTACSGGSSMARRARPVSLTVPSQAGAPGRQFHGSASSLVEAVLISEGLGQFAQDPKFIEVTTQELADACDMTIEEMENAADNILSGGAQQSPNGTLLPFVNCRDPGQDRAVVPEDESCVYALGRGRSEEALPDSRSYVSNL
T4 sequence (P54290 25-944 partner limits assumed, other chains not shown): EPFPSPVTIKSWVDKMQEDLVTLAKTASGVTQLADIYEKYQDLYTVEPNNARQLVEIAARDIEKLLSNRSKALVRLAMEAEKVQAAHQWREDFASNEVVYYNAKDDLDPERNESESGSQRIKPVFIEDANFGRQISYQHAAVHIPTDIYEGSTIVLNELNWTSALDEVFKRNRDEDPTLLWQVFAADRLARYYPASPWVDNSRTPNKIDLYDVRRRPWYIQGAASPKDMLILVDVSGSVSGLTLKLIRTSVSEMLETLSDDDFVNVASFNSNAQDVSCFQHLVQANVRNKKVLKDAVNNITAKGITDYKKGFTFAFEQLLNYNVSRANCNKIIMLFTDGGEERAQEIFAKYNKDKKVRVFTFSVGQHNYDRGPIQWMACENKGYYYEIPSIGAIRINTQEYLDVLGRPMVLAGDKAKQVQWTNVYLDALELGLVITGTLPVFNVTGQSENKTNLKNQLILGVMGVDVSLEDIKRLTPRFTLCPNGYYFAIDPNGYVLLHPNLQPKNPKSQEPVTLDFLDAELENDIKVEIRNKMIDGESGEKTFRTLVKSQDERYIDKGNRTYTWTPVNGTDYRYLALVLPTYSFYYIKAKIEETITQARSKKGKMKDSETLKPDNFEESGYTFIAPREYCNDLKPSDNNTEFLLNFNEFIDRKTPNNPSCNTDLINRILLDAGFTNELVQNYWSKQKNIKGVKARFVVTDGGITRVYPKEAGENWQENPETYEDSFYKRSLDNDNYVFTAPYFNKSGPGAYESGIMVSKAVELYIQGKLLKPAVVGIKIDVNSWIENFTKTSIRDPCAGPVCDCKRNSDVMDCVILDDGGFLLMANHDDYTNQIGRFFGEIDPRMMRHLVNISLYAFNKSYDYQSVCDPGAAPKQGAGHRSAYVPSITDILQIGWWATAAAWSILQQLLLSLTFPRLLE
T4 sequence (P54290 945-1091 partner limits assumed, other chains not shown): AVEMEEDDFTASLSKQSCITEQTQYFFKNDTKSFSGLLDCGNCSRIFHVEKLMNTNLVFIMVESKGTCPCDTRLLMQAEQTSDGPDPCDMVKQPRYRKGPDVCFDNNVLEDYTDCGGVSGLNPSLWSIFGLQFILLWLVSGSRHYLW

[2] = human α2C receptor, LM(tk−) cells
[3] = cloned human α1C receptor, LM(tk−) cell membranes
[4] = human α2A receptor, LM(tk−) cells
[5] = rat cardiac muscle membrane fragments, L-type calcium channel
[6] = human α2C receptor, LM(tk−) cells, read-out: pKi alpha-2 2c (converted)
[7] = cloned human α1C receptor, LM(tk−) cell membranes, read-out: pKi alpha-1 1c (converted)
[8] = human α2A receptor, LM(tk−) cells, read-out: pKi alpha-2 2a (converted)
[9] = rat cardiac muscle membrane fragments, L-type calcium channel, read-out: pKi Ca (converted)
[10] = human receptor, LM(tk-) cell lysates, mean, read-out: PKi alpha-2 2c (converted)
[11] = cloned human receptor, LM(tk-) cell membranes, mean, read-out: PKi alpha-1 1c (converted)
[12] = human receptor, LM(tk-) cell lysates, mean, read-out: PKi alpha-2 2a (converted)
[13] = rat cardiac muscle membranes, mean, read-out: PKi Ca (converted)
[14] = human receptor, LM(tk-) cell lysates, mean

Ki (α2C receptor; LM(tk-) cell line L-α2C, SEM and n in lines below, read-out: pKi alpha-2 2c (converted)): 0.0269 µM | melting point: 191 to 192 °C | Ki ([1]; cloned human receptor in LM(tk-) cell membranes, SEM and n in lines below, read-out: pKi alpha-1 1c (converted)): 0.000537 µM | Ki (α2A receptor; LM(tk-) cell line L-α2A, SEM and n in lines below, read-out: pKi alpha-2 2a (converted)): 0.347 µM | Ki (L-type calcium channel; rat cardiac muscle membranes, SEM and n in lines below, read-out: pKi Ca (converted)): 10 µM
SMILES: COC(=O)C1=C(C)NC(C)=C(C(=O)NCCCN2CCC(c3ccccc3)CC2)C1c1ccc(Cl)c([N+](=O)[O-])c1 (centres unmarked) [Example 17, 4-(4-Chloro-3-nitrophenyl)-1,4-dihydro-3-methoxycarbonyl-2,6-dimethyl-5-(N-(3-(4-phenylpiperidin-1-yl)propyl)carboxamido)pyridine]

SMILES: CCOC(=O)C1=C(CNCCCN2CCC(c3ccccc3)(c3ccccc3)CC2)NC(C)=C(C(=O)OC)C1c1ccc([N+](=O)[O-])cc1.Cl.O (centres unmarked) [Example 90, 3-Ethoxycarbonyl-1,4-dihydro-5-methoxycarbonyl-6-methyl-4-(4-nitro)phenyl-2-(N-(3-(4,4,-diphenylpiperidin-1-yl)propyl)amino)methylpyridine, hydrochloride hydrate]
pKi alpha-2 2c (α2C receptor; [2]): 6.79 | pKi alpha-1 1c [1, 3]: 7.56 | pKi alpha-2 2a (α2A receptor; [4]): 6.13 | pKi Ca (L-type calcium channel; [5]): 6.63

SMILES: COC(=O)C1=C(C)NC2=C(C(=O)N(CCCN3CCC(c4ccccc4)(c4ccccc4)CC3)C2)C1c1ccc([N+](=O)[O-])cc1.Cl.O (centres unmarked) [Example 91, 1,4,7,7-Tetrahydro-3-methoxycarbonyl-6-methyl-5-oxo-4-(4-nitrophenyl)-6-(3-(4,4-diphenylpiperidin-1-yl)) propylpyrrolo[3,4-b]pyridine, hydrochloride hydrate]
pKi alpha-2 2c (α2C receptor; [2]): 6.31 | pKi alpha-1 1c [1, 3]: 8.04 | pKi alpha-2 2a (α2A receptor; [4]): 6.06 | pKi Ca (L-type calcium channel; [5]): 6.55

SMILES: CCC1=C(C(N)=O)C(c2ccc([N+](=O)[O-])cc2)C(C(=O)NCCCN2CCC(O)(c3ccccc3)CC2)=CN1CC.Cl.O (centres unmarked) [Example 101, 5-Carboxamido-1,6-diethyl-1,4-dihydro-3-{N-[3-(4-hydroxy-4-phenylpiperidin-1-yl)propyl]}carboxamido-4-(4-nitrophenyl)pyridine hydrochloride hydrate]
pKi alpha-2 2c (α2C receptor; [2]): 6.04 | pKi alpha-1 1c [1, 3]: 8.54 | pKi alpha-2 2a (α2A receptor; [4]): 5.89 | pKi Ca (L-type calcium channel; [5]): 3

Ki (α2C receptor; [6]): 0.0158 µM | Ki [1, 7]: 0.00324 µM | Ki (α2A receptor; [8]): 0.00525 µM | Ki (L-type calcium channel; [9]): 1000 µM
SMILES: CCC1=C(C(N)=O)C(c2ccc([N+](=O)[O-])cc2)C(C(=O)NCCCN2CCN(c3ccccc3)CC2)=C(CC)N1 (centres unmarked) [Example 104, 5-Carboxamido-2,6-diethyl-1,4-dihydro-4-(4-nitrophenyl)-3-{N-[3-(4-phenylpiperazin-1-yl)propyl]}carboxamido-pyridine hydrochloride hydrate]

SMILES: CCC1=C(C(N)=O)C(c2ccc([N+](=O)[O-])cc2)C(C(=O)NCCCN2CCC(c3ccccc3)(c3ccccc3)CC2)=C(CC)N1 (centres unmarked) [Example 120, 5-Carboxamido-2,6-diethyl-1,4-dihydro-4-(4-nitrophenyl)-3-{N-[3-(4,4-diphenylpiperidin-1-yl)propyl]} carboxamidopyridine]
pKi alpha-2 2c (α2C receptor; [2]): 6.72 | pKi alpha-1 1c [1, 3]: 8.97 | Ki (α2A receptor; [8]): 0.363 µM | Ki (L-type calcium channel; [9]): 1000 µM

SMILES: CCC1=C(C(N)=O)C(c2ccc([N+](=O)[O-])cc2)C(C(=O)NC2CCN(CCc3c[nH]c4ccccc34)CC2)=CN1CC (centres unmarked) [Example 122, 5-Carboxamido-1,4-dihydro-3-(N-{1-[2-(3-indolyl)ethyl]piperidin-4-yl}) carboxamido-1,6-diethyl-4-(4-nitrophenyl)pyridine]
pKi alpha-2 2c (α2C receptor; [2]): 6.53 | pKi alpha-1 1c [1, 3]: 7.71 | pKi alpha-2 2a (α2A receptor; [4]): 6.38 | pKi Ca (L-type calcium channel; [5]): 3

SMILES: CCC1=C(C(N)=O)C(c2ccc([N+](=O)[O-])cc2)C(C(=O)NC2CCN(CCc3c[nH]c4ccccc34)CC2)=CN1CC (centres unmarked) [Example 123, 5-Carboxamido-1,6-diethyl-1,4-dihydro-3-(N-{1-[2-(3-indolyl)ethyl]piperidin-4-yl}) carboxamide-4-(4-nitrophenyl)pyridine]
pKi alpha-2 2c (α2C receptor; [2]): 6.42 | pKi alpha-1 1c [1, 3]: 8.3 | pKi alpha-2 2a (α2A receptor; [4]): 6.03 | pKi Ca (L-type calcium channel; [5]): 4.53

Ki (α2C receptor; [6]): 0.0447 µM | Ki [1, 7]: 0.00195 µM | Ki (α2A receptor; [8]): 0.0224 µM | Ki (L-type calcium channel; [9]): 1000 µM
SMILES: COc1ccccc1N1CCN(CCCNC(=O)C2=C(C)NC(C)=C(C(N)=O)C2c2ccc([N+](=O)[O-])cc2)CC1 (centres unmarked) [Example 124]

SMILES: CCC1=C(C(=O)NC)C(c2ccc([N+](=O)[O-])cc2)C(C(=O)NCCCN2CCC(C#N)(c3ccccc3)CC2)=C(CC)N1 (centres unmarked) [Example 126, 3-{N-[3-(4-Cyano-4-phenylpiperidin-1-yl)propyl]}carboxamido-1,4-dihydro-2,6-diethyl-5-(1-methyl)carboxamido-4-(4-nitrophenyl)pyridine]
pKi alpha-2 2c (α2C receptor; [2]): 5.36 | pKi alpha-1 1c [1, 3]: 7.95 | pKi alpha-2 2a (α2A receptor; [4]): 5.33 | pKi Ca (L-type calcium channel; [5]): 6.34

SMILES: COC(=O)C1(c2ccccc2)CCN(CCCNC(=O)C2=C(COCCN=[N+]=[N-])NC(C)=C(C(N)=O)C2c2ccc([N+](=O)[O-])cc2)CC1 (centres unmarked) [Example 183, 2-[(2-Azidoethoxy)methyl]-5-carboxamido-1,4-dihydro-3-{N-[3-(4-methoxycarbonyl-4-phenylpiperidin-1-yl)propyl]}carboxamido-6-methyl-4-(4-nitrophenyl)pyridine]
Ki (α2C receptor; [10]): 0.437 µM | Ki [1, 11]: 0.000851 µM | Ki (α2A receptor; [12]): 1.05 µM | Ki (L-type calcium channel; [13]): 74.1 µM

SMILES: CC1=C(C(N)=O)C(c2ccc([N+](=O)[O-])cc2)C(C(=O)NCCCN2CCC(C(=O)OCCC#N)(c3ccccc3)CC2)=CN1C (centres unmarked) [Example 209, 5-Carboxamido-3-{N-[3-(4-(2-cyanoethoxycarbonyl)-4-phenylpiperidin-1-yl)propyl]}carboxamido-1,4-dihydro-1,6-dimethyl-4-(4-nitrophenyl) pyridine]
PKi alpha-2 2c (α2C receptor; [14]): 5.70 | PKi alpha-1 1c ([1]; cloned human receptor, LM(tk-) cell membranes, mean): 8.41 | PKi alpha-2 2a (α2A receptor; [14]): 5.78 | PKi Ca (L-type calcium channel; rat cardiac muscle membranes, mean): 4.53

SMILES: CCC1=C(C(N)=O)C(c2ccc([N+](=O)[O-])cc2)C(C(=O)NCCCN2CCC(C(=O)OC)(c3ccccc3)CC2)=C(COCCN)N1 (centres unmarked) [Example 234, 2-((2-Aminoethyl)oxy)methyl-5-carboxamido-6-ethyl-1,4-dihydro-3-(N-(3-(4-methoxycarbonyl-4-phenylpiperidin-1-yl)propyl)) carboxamido-4-(4-nitro)phenylpyridine]
Ki (α2C receptor; [10]): 0.832 µM | Ki [1, 11]: 0.00162 µM | Ki (α2A receptor; [12]): 1.23 µM | Ki (L-type calcium channel; [13]): 398 µM
